The subject of one experiment is cirrhosis of the liver. Conditions: cited from earlier work.
The test system of the next experiment is alpha-fetoprotein. The conditions noted are these: cirrhotic patients with slightly high levels; cited from earlier work.
For experiment [1], the system named is preneoplastic lesions in rat liver. Nature of the experiment: Resistant hepatocyte model, 25 days, histochemical GGT staining of liver sections (Example 2). In kind it is in vivo. The method, then: (§1) For the experimental phase in its first stage, male rats of the Fisher 344 strain were used, having 180 to 200 grams body weight, which were bred and kept in an Animal Breeding and Experimentation Unit of the Advanced Research and Studies Center, in a controlled environment with 12-hour cycles of light/darkness at a temperature of 23° C., in hygiene conditions and with free access to food and water. The preneoplastic lesion outgrowth in the liver was induced to the rats by using the resistant hepatocyte model (Semple-Roberts E, Hayes M A, Armstrong D, Becker R A, Racz W J, and Farber E. (1987) Alternative methods of selecting rat hepatocellular nodules resistant to 2-acetylaminofluorence. Int, J. Cancer. 40:643-6451) modified by our research group (Carrasc-Legleu C E, Marquez-Rosado L, Fattel-Fazenda S, Arce-PopocaE, Pérez-Carreón JI, VIIIa-Treviño S. (2004) Chemoprotective effect of caffeic acid phenethyl ester on promotion in a medium-term rat hepatocarcinogenesis assay. Int J. Cancer. 108:488-92).
On days 7, 8, and 9 after the beginning, a dose of 20 mg/kg of weight of 2-acetylaminofluorene (hereinafter called as 2AAF) was administered as carcinogen promoter, and on day 10 after the beginning, rats underwent a partial hepatectomy (HP) of 70% of hepatic mass (the administration of these products along with the hepatectomy is taken into consideration as the entire treatment for this experiment). Lastly, the rats were sacrificed at day 25.
In order to show the beneficial effect of adenosine aspartate in preneoplastic lesions, 6 different experimental groups were designed, as shown in FIG. 2.
The first group (TC), having 8 rats, was administered with the entire treatment; this group was used as positive control of the preneoplastic lesion outgrowth. The second group (IFC-1), having 8 animals, was administered with a pharmacologically effective dose of adenosine aspartate, which for this case, was 50 mg/kg of body weight dissolved in a physiological saline solution, pH 7.4 with 0.5% carboxymethyl-cellulose, replacing DEN carcinogen primer. The third group (IFC-P), having 8 animals, was administered with a pharmacologically effective dose of adenosine aspartate, which for this case, was 50 mg/kg of body weight dissolved in a physiological saline solution, pH 7.4 with 0.5% carboxymethyl-cellulose, replacing 2-AAF carcinogen promoter. In the fourth group (IFC-IP), with 7 animals, both the DEN carcinogen primer and the 2AAF carcinogen promoter were substituted by adenosine aspartate in pharmacologically effective doses, which in this case, was 50 mg/kg of body weight dissolved in a physiological saline solution, pH 7.4 with 0.5% carboxymethyl-cellulose. The fifth group (C-2AAF), having 6 animals, was administered with 2AAF only, being used as control of the administration of adenosine aspartate at the beginning of the second group (IFC-I. Finally, the sixth group(C-DEN), having 7 animals, which received DEN product only, was used as control of the administration of adenosine aspartate in the promotion of group 3 (IFC-P).
When ending the cycle, all groups underwent a partial hepatectomy. […] 17(8):517-526.) Briefly, sections were set in absolute ethanol for 10 min at −20° C.; subsequently, they were treated with a solution that contains 125 μg/ml of γ-glutamil-4-methoxi-2-naphthylamide (GMNA), 0.5 mg/ml of glycyl-glycine and 0.5 mg/ml of Fast Blue in 100 mM of Tris base and they were incubated for 30 minutes at room temperature; finally, they were washed with saline solution, the precipitated were set with 100 mM cupric sulfate solution. All reagents acquired from Sigma Chemical Co. in St Louis, Mo., USA. The enzyme activity was expressed in areas stained with dark red color. […]

Experiment [2] shares this test system. Nature of the experiment: Resistant hepatocyte model, adenosine aspartate given after cancer induction, sacrifice at month 12 (Example 1). The experiment is classed as in vivo. The method, then: as §1
As can be observed in this figure, this second experiment (IFC) consisted first in administering by intraperitoneal route, one single dose of 200 mg/kg of weight of DEN as carcinogen primer. Additionally, on days 7, 8, and 9 after the beginning, a dose of 20 mg/kg of weight of 2AAF was administered as carcinogen promoter, and on day 10 after the beginning, rats underwent an HP. […]

[3] abbreviates: group IFC-I: adenosine aspartate 50 mg/kg as primer replacing DEN, day 25.
The mark [4] stands for this setting: group IFC-IP: adenosine aspartate 50 mg/kg as primer and promoter replacing DEN and 2AAF, day 25.
The mark [5] stands for this setting: group IFC-P: adenosine aspartate 50 mg/kg as promoter replacing 2AAF, day 25.

Turning to adenosine aspartate, in the experiment on cirrhosis of the liver, the accumulation of collagen entry is listed as “reducing the accumulation of collagen”. For the same substance, the “serum levels of alpha-fetoprotein” value in the experiment on alpha-fetoprotein is “reduces serum levels of alpha-fetoprotein”. The “effect over the preneoplastic lesion outgrowth compared with respective control groups” value in experiment [1] (as primer (IFC-I) or as promoter (IFC-P), vs C-2AAF and C-DEN) is recorded as “no effect”. Besides, the entries for the “average of positive GGT foci/cm^2 regarding the control group with the entire treatment (TC = 100%)” value in experiment [1] (setting [3]) and in experiment [1] (setting [5]) were 1.3% and 7.1%, respectively. Further, the “positive GGT area regarding the control group with the entire treatment (TC = 100%)” value in experiment [1] (setting [3]) was determined as 0.4%; in experiment [1] (setting [4]), 0.08%; in experiment [1] (setting [5]), 4.6%. The “positive GGT arborescences in liver” value in experiment [1] (group IFC-I: as primer) is on record as “some livers presented positive GGT arborescences”. The “number of positive GGT foci/cm^2 regarding the control group with the entire treatment (TC = 100%)” value in experiment [1] (setting [4]) is 0.2%. For the same substance, the “development of preneoplastic lesions” value in experiment [1] (group IFC-IP: as primer and as promoter) is on record as “no preneoplastic lesions were developed”. Besides, in experiment [1] (group IFC-P: as promoter), the “positive GGT arborescences and preneoplastic lesions in liver” value is “positive GGT arborescences were not observed but small preneoplastic lesions were observed”. Besides, in experiment [1] (groups IFC-I and IFC-P), the “alterations (number and area) compared with control groups C-2AAF and C-DEN” value was “lower in number as well as in area”. The “effect on already installed preneoplastic lesions” value in experiment [2] (60 mg/kg every 3 days from month 8 until month 12) is given as “reversal effect”. In addition, the “alterations of cancer or preneoplastic lesions” value in experiment [2] (administered after a product used to induce cancer, 60 mg/kg every 3 days from month 8) was “no suggestive alterations of cancer or preneoplastic lesions were present”.

The record behind these values is US8507459B2, “Use of adenosine aspartate for the preparation of pharmaceutical products for the treatment of liver cancer” (Universidad Nacional Autonnoma de Mexico, priority 2007, dated 2013).
